# Tested on: patients with fasting triglyceride levels >200 mg/dl and <500 mg/dl despite statin therapy
# Experiment: 12-week study: lipid profile (TC, LDL-C, HDL-C, non-HDL-C, VLDL-C, VLDL-TG, RLP-C)
# Format: in vivo, human
# Conditions: for Non-HDL-C, Diff from pbo (Hodges-Lehmann median difference) / Non-HDL-C, EOT (Week 12 endpoint) median / LDL-C Median % chg from BL / LDL-C, Diff from pbo (Hodges-Lehmann median difference) / LDL-C, EOT (Week 12 endpoint) median / Non-HDL-C Median % chg from BL / LDL-C Diff from pbo (median % chg, Hodges-Lehmann) / LDL-C EOT Median / Non-HDL-C Diff from pbo (median % chg, Hodges-Lehmann) / Non-HDL-C EOT Median: AMR 101 4 g + statin
# Source text: Parameters (a)-(z) can be measured in accordance with any clinically acceptable methodology. For example, triglycerides, total cholesterol, HDL-C and fasting blood sugar can be sample from serum and analyzed using standard photometry techniques. VLDL-TG, LDL-C and VLDL-C can be calculated or determined using serum lipoprotein fractionation by preparative ultracentrifugation and subsequent quantitative analysis by refractometry or by analytic ultracentrifugal methodology. Apo A1, Apo B and hsCRP can be determined from serum using standard nephelometry techniques. Lipoprotein (a) can be determined from serum using standard turbidimetric immunoassay techniques. LDL particle number and particle size can be determined using nuclear magnetic resonance (NMR) spectrometry. Remnants lipoproteins and LDL-phospholipase A2 can be determined from EDTA plasma or serum and serum, respectively, using enzymatic immunoseparation techniques. Oxidized LDL, intercellular adhesion molecule-1 and interleukin-2 levels can be determined from serum using standard enzyme immunoassay techniques. These techniques are described in detail in standard textbooks, for example Tietz Fundamentals of Clinical Chemistry, 6th Ed. (Burtis, Ashwood and Borter Eds.), WB Saunders Company.
# A multi-center, placebo-controlled, randomized, double-blind, 12-week study was performed to evaluate the efficacy and safety of >96% E-EPA in patients with fasting triglyceride levels >200 mg/dl and <500 mg/dl despite statin therapy (the mean of two qualifying entry values needed to be >185 mg/dl and at least one of the values needed to be >200 mg/dl). The primary objective of the study was to determine the efficacy of >96% E-EPA 2 g daily and 4 g daily, compared to placebo, in lowering fasting TG levels in patients with high risk for cardiovascular disease and with fasting TG levels 200 mg/dl and <500 mg/dl, despite treatment to LDL-C goal on statin therapy.
# The secondary objectives of this study were the following: • 1. To determine the safety and tolerability of >96% E-EPA 2 g daily and 4 g daily; • 2. To determine the effect of >96% E-EPA on lipid and apolipoprotein profiles including total cholesterol (TC), non-high-density lipoprotein cholesterol (non-HDL-C), low density lipoprotein cholesterol (LDL-C), high density lipoprotein cholesterol (HDL-C), and […]; • 3. To determine the effect of >96% E-EPA on lipoprotein associated phospholipase A2 (Lp-PLA2) from baseline to week 12; • 4. To determine the effect of >96% E-EPA on low-density lipoprotein (LDL) particle number and size; • 5. To determine the effect of >96% E-EPA on oxidized LDL; • 6. To determine the effect of >96% E-EPA on fasting plasma glucose (FPG) and hemoglobin A1c (HbA1c); • 7. To determine the effect of >96% E-EPA on insulin resistance; • 8. To determine the effect of >96% E-EPA on high-sensitivity C-reactive protein (hsCRP); • 9. To determine the effects of >96% E-EPA 2 g daily and 4 g daily on the incorporation of fatty acids into red blood cell membranes and into plasma phospholipids; • 10. To explore the relationship between baseline fasting TG levels and the reduction in fasting TG levels; and • 11. To explore the relationship between changes of fatty acid concentrations in plasma and red blood cell membranes, and the reduction in fasting TG levels.
# The primary efficacy variable for the double-blind treatment period was percent change in TG from baseline to Week 12 endpoint. […]
# [1] = Diabetes No, Week 12 endpoint, MITT
# [2] = Diabetes Yes, Week 12 endpoint, MITT
# [3] = Non-statin Washout No, Week 12 endpoint, MITT
# [4] = Non-statin Washout Yes, Week 12 endpoint, MITT
# [5] = baseline TG tertile Highest (≥289.5 mg/dL), Week 12 endpoint, MITT
# [6] = baseline TG tertile Lowest (<230.5 mg/dL), Week 12 endpoint, MITT
# [7] = baseline TG tertile Middle (230.5 to <289.5 mg/dL), Week 12 endpoint, MITT
# [8] = AMR101 4 g/d + statin, Week 12 endpoint, MITT
# [9] = AMR101 4 g/d + statin, percent change from baseline to Week 12 endpoint, MITT
# [10] = IPE 4 g/day (n = 216), 12 weeks, patients with lipoprotein data
# [11] = IPE 4 g/day vs placebo, 12 weeks, Hodges-Lehmann median
structure (smiles),measurement,setting,value
"CC/C=C\C/C=C\C/C=C\C/C=C\C/C=C\CCCC(=O)OCC [AMR101, ethyl eicosapentaenoate]","Non-HDL-C, Diff from pbo (Hodges-Lehmann median difference)","Atorva subgroup, MITT",−13.5
same,"Non-HDL-C, EOT (Week 12 endpoint) median","Atorva subgroup, MITT",122.0
same,LDL-C Median % chg from BL,"Rosuva subgroup, MITT",−3.8%
same,"LDL-C, Diff from pbo (Hodges-Lehmann median difference)","Rosuva subgroup, MITT",−14.8
same,"LDL-C, EOT (Week 12 endpoint) median","Rosuva subgroup, MITT",82.5
same,Non-HDL-C Median % chg from BL,"Rosuva subgroup, MITT",−5.5%
same,"Non-HDL-C, Diff from pbo (Hodges-Lehmann median difference)","Rosuva subgroup, MITT",−20.0
same,"Non-HDL-C, EOT (Week 12 endpoint) median","Rosuva subgroup, MITT",118.0
same,LDL-C Median % chg from BL,"Simva subgroup, MITT",1.5%
same,"LDL-C, Diff from pbo (Hodges-Lehmann median difference)","Simva subgroup, MITT",−5.4
same,"LDL-C, EOT (Week 12 endpoint) median","Simva subgroup, MITT",83.0
same,Non-HDL-C Median % chg from BL,"Simva subgroup, MITT",−4.3%
same,"Non-HDL-C, Diff from pbo (Hodges-Lehmann median difference)","Simva subgroup, MITT",−11.1
same,"Non-HDL-C, EOT (Week 12 endpoint) median","Simva subgroup, MITT",125.0
same,LDL-C Median % chg from BL,"Statin Potency High, MITT",5.4%
same,"LDL-C, Diff from pbo (Hodges-Lehmann median difference)","Statin Potency High, MITT",−2.9
same,"LDL-C, EOT (Week 12 endpoint) median","Statin Potency High, MITT",82.0
same,Non-HDL-C Median % chg from BL,"Statin Potency High, MITT",−6.3%
same,"Non-HDL-C, Diff from pbo (Hodges-Lehmann median difference)","Statin Potency High, MITT",−15.8
same,"Non-HDL-C, EOT (Week 12 endpoint) median","Statin Potency High, MITT",118
same,LDL-C Median % chg from BL,"Statin Potency Low, MITT",7.8%
same,"LDL-C, Diff from pbo (Hodges-Lehmann median difference)","Statin Potency Low, MITT",12.4
same,"LDL-C, EOT (Week 12 endpoint) median","Statin Potency Low, MITT",84.5
same,Non-HDL-C Median % chg from BL,"Statin Potency Low, MITT",−1.4%
same,"Non-HDL-C, Diff from pbo (Hodges-Lehmann median difference)","Statin Potency Low, MITT",2.4
same,"Non-HDL-C, EOT (Week 12 endpoint) median","Statin Potency Low, MITT",131
same,LDL-C Median % chg from BL,"Statin Potency Medium, MITT",−2.2%
same,"LDL-C, Diff from pbo (Hodges-Lehmann median difference)","Statin Potency Medium, MITT",−10.0
same,"LDL-C, EOT (Week 12 endpoint) median","Statin Potency Medium, MITT",84.0
same,Non-HDL-C Median % chg from BL,"Statin Potency Medium, MITT",−4.3%
same,"Non-HDL-C, Diff from pbo (Hodges-Lehmann median difference)","Statin Potency Medium, MITT",−13.9
same,"Non-HDL-C, EOT (Week 12 endpoint) median","Statin Potency Medium, MITT",124
same,"LDL-C Diff from pbo (median % chg, Hodges-Lehmann)",[1],−5.3%
same,LDL-C EOT Median,[1],83.5 mg/dL
same,LDL-C Median % chg from BL,[1],1.4%
same,"Non-HDL-C Diff from pbo (median % chg, Hodges-Lehmann)",[1],−11.3′ %
same,Non-HDL-C EOT Median,[1],126 mg/dL
same,Non-HDL-C Median % chg from BL,[1],−0.9%
same,"LDL-C Diff from pbo (median % chg, Hodges-Lehmann)",[2],−6.3%
same,LDL-C EOT Median,[2],83.0 mg/dL
same,LDL-C Median % chg from BL,[2],2.0%
same,"Non-HDL-C Diff from pbo (median % chg, Hodges-Lehmann)",[2],−14.4%
same,Non-HDL-C EOT Median,[2],121 mg/dL
same,Non-HDL-C Median % chg from BL,[2],−5.5%
same,"LDL-C Diff from pbo (median % chg, Hodges-Lehmann)",[3],−5.1%
same,LDL-C EOT Median,[3],83.5 mg/dL
same,LDL-C Median % chg from BL,[3],2.5%
same,"Non-HDL-C Diff from pbo (median % chg, Hodges-Lehmann)",[3],−4.8%
same,Non-HDL-C EOT Median,[3],122 mg/dL
same,Non-HDL-C Median % chg from BL,[3],−4.9%
same,"LDL-C Diff from pbo (median % chg, Hodges-Lehmann)",[4],−7.5%
same,LDL-C EOT Median,[4],80.0 mg/dL
same,LDL-C Median % chg from BL,[4],−1.4%
same,"Non-HDL-C Diff from pbo (median % chg, Hodges-Lehmann)",[4],−14.4%
same,Non-HDL-C EOT Median,[4],124 mg/dL
same,Non-HDL-C Median % chg from BL,[4],−5.4%
same,"LDL-C Diff from pbo (median % chg, Hodges-Lehmann)",[5],0%
same,LDL-C EOT Median,[5],83.0
same,LDL-C Median % chg from BL,[5],4.8%
same,"Non-HDL-C Diff from pbo (median % chg, Hodges-Lehmann)",[5],−17.6%
same,Non-HDL-C EOT Median,[5],130
same,Non-HDL-C Median % chg from BL,[5],−6.9%
same,"LDL-C Diff from pbo (median % chg, Hodges-Lehmann)",[6],−12.2%
same,LDL-C EOT Median,[6],83.0
same,LDL-C Median % chg from BL,[6],−3.9%
same,"Non-HDL-C Diff from pbo (median % chg, Hodges-Lehmann)",[6],−13.8%
same,Non-HDL-C EOT Median,[6],118
same,Non-HDL-C Median % chg from BL,[6],−2.0%
same,"LDL-C Diff from pbo (median % chg, Hodges-Lehmann)",[7],−5.8%
same,LDL-C EOT Median,[7],82.5
same,LDL-C Median % chg from BL,[7],2.1%
same,"Non-HDL-C Diff from pbo (median % chg, Hodges-Lehmann)",[7],−9.5%
same,Non-HDL-C EOT Median,[7],124
same,Non-HDL-C Median % chg from BL,[7],−4.0%
same,HDL-C Week 12 EP Median (IQR),"AMR101 4 g/d + statin, MITT",37.0 (13.0) mg/dL
same,LDL-C Week 12 EP Median (IQR),"AMR101 4 g/d + statin, MITT",83.0 (31.0) mg/dL
same,Non-HDL-C Week 12 EP Median (IQR),"AMR101 4 g/d + statin, MITT",122.0 (39.0) mg/dL
same,RLP-C Week 12 EP Median (IQR),"AMR101 4 g/d + statin, MITT",10.0 (6.0) mg/dL
same,Total cholesterol Week 12 EP Median (IQR),"AMR101 4 g/d + statin, MITT",162.0 (38.0) mg/dL
same,VLDL-C Week 12 EP Median (IQR),"AMR101 4 g/d + statin, MITT",38.0 (22.0) mg/dL
same,VLDL-TG Week 12 EP Median (IQR),"AMR101 4 g/d + statin, MITT",147.0 (88.0) mg/dL
same,HDL-C Percent change from Baseline Median (IQR),[8],−1.0 (18.2) %
same,LDL-C Percent change from Baseline Median (IQR),[8],1.5 (26.6) %
same,Non-HDL-C Percent change from Baseline Median (IQR),[8],−5.0 (21.3) %
same,RLP-C Percent change from Baseline Median (IQR),[8],−24.0 (45.5) %
same,Total cholesterol Percent change from Baseline Median (IQR),[8],−3.2 (16.8) %
same,VLDL-C Percent change from Baseline Median (IQR),[8],−12.1 (47.9) %
same,VLDL-TG Percent change from Baseline Median (IQR),[8],−19.2 (46.2) %
same,HDL-C Difference from placebo Estimated median,[9],−4.5%
same,LDL-C Difference from placebo Estimated median,[9],−6.2%
same,Non-HDL-C Difference from placebo Estimated median,[9],−13.6%
same,RLP-C Difference from placebo Estimated median,[9],−25.8%
same,Total cholesterol Difference from placebo Estimated median,[9],−12.0%
same,VLDL-C Difference from placebo Estimated median,[9],−24.4%
same,VLDL-TG Difference from placebo Estimated median,[9],−26.5%
same,"HDL-C, Change From Baseline, % (median)",[10],−2.2%
same,"HDL-C, End of Treatment (median)",[10],36.5 mg/dL
same,"LDL-C, Change From Baseline, % (median)",[10],2.1%
same,"LDL-C, End of Treatment (median)",[10],83.0 mg/dL
same,"Non-HDL-C, Change From Baseline, % (median)",[10],−5.1%
same,"Non-HDL-C, End of Treatment (median)",[10],122.0 mg/dL
same,"HDL-C, Median Change From Baseline IPE 4 g/day vs Placebo, %",[11],−5.0%
same,"LDL-C, Median Change From Baseline IPE 4 g/day vs Placebo, %",[11],−5.2%
same,"Non-HDL-C, Median Change From Baseline IPE 4 g/day vs Placebo, %",[11],−13.5%

# From US11285127B2, “Compositions and methods for lowering triglycerides without raising LDL-C levels in a subject on concomitant statin therapy” (Amarin Pharmaceuticals Ireland Limited, priority 2013, dated 2022)
